Values after ≈ are worked out from the molar mass of the structure shown.
Experiments:
[1] = tested on: vesicular stomatitis virus (VSV); assay: microbe, parasite or virus in culture; format: cell-based; conditions: L929, 24 h, read-out: 50% Growth inhibitory concentration
[2] = tested on: HL-60 cells, HGC-27 cells, HLC-1 cells; assay: Antitumor action, comparison over the tumor cells of Table 10; format: cell-based, human; conditions: from the 50% growth inhibitory concentrations of Table 10
Text: Solutions in each well were serially diluted with a fresh preparation of the same RPMI1640 medium (pH 7.2) as used in the above.
HL-60 cells (ATCC CCL-240) derived from a patient with acute promyelocytic leukemia, HGC-27 cells (RCB0500) derived from a patient with gastric cancer, and HLC-1 cells (RCB0083) derived from a patient with lung adenocarcinoma were respectively suspended in fresh preparations of the same RPMI1640 medium (pH 7.2) as used in the above to give respective cell concentrations of 4×10^5 cells/ml, 4×10^5 cells/ml, and 2×10^6 cells/ml. Each cell suspension was distributed to a microplate in a volume of 50 μl/well and incubated at 37° C. for 48 hours in a 5 v/v % CO2 incubator. To each microplate, a 25 v/v % aqueous glutaraldehyde solution was added in a volume of 20 μl/well, and the microplate was allowed to stand for 15 min to fix the cells. Then, the cells adhered to the wells were washed with water, admixed with a 0.05 w/v % aqueous methylene blue solution in a volume of 100 μl/well, and further allowed to stand for 15 min to stain the cells. Thereafter, an excessive amount of the staining solution was removed from the wells by washing with water, and the cells were dried, admixed with 300 μl/well of 0.33 N hydrochloric acid, stirred sufficiently, and measured for absorption at a wavelength of 620 nm. […]

[3] = Water-solubility (dissolving in refined water for the NBT test); format: physicochemical; conditions: NBT evaluation impossible
Protocol: Then the formed formazan was quantified on spectro-chemical analysis. Either of the present physiologically active extracts was dissolved in a refined water to give an appropriate concentration, and the solutions were used for test samples. As a control it was provided by replacing the test samples with a refined water. The 50% inhibitory activity for the formation of formazan in the control was defined as a one unit activity of radical-entrapping action. Based of the definition, the radical-entrapping activity of one gram of each test sample was determined.
Particularly, the radical-entrapping action of the physiologically active substance of Experiment 1 and Compounds 5 and 6 of Experiment 2 was remarkable.

SMILES: O=C1c2ccccc2-n2c1nc1ccccc1c2=O [Compound 1, 6,12-dihydro-6,12-dioxoindolo[2,1-b]quinazoline]
- IC50 [1]: 13 µg/mL (≈ 52.4 µM)
- Antitumor action relative to Compound 2 [2]: ≥ 10 times
- Water-solubility [3]: insufficient water-solubility

Reference: patent US6524625B2, “Physiologically active extract obtained from indigo plant polygonum tinctorium” (Kabushiki Kaisha Hayashibara Seibutsu Kagaku Kenkyuto, priority 1998, dated 2003)
